Active and inactive are the calls of the source. The calls are words filed in the database; no cut-off is given here.
Assays:
[1] = Toxicity in BALB/c mouse assessed as change in SCr level in serum at 10 mg/kg, po; format: organism-based; conditions: in vivo
[2] = Toxicity in BALB/c mouse assessed as change in AST level in serum at 10 mg/kg, po; format: organism-based; conditions: in vivo
[3] = AUC (0 to infinity) in BALB/c mouse at 10 mg/kg, po measured upto 24 hrs by LC/MS-MS analysis; format: ADME, organism-based; conditions: in vivo
[4] = Toxicity in BALB/c mouse assessed as histopathological lesions in kidney at 10 mg/kg, po by H and E staining based analysis; format: organism-based; conditions: in vivo
[5] = AUC (0 to t) in BALB/c mouse at 10 mg/kg, po measured upto 24 hrs by LC/MS-MS analysis; format: ADME, organism-based; conditions: in vivo
[6] = Toxicity in BALB/c mouse assessed as histopathological lesions in liver at 10 mg/kg, po by H and E staining based analysis; format: organism-based; conditions: in vivo
[7] = Toxicity in BALB/c mouse assessed as change in BUN level in serum at 10 mg/kg, po; format: organism-based; conditions: in vivo
[8] = Toxicity in BALB/c mouse assessed as change in ALT level in serum at 10 mg/kg, po; format: organism-based; conditions: in vivo
RAW264.7 [9] = assay: Antiinflammatory activity in LPS-induced mouse RAW264.7 cells assessed as inhibition of TNF-alpha level at 20 uM incubated for 24 hrs by ELISA method relative to control; format: functional
[10] = Cmax in BALB/c mouse at 10 mg/kg, po measured upto 24 hrs by LC/MS-MS analysis; format: ADME, organism-based; conditions: in vivo
RAW264.7 [11] = assay: Antiinflammatory activity in LPS-induced mouse RAW264.7 cells assessed as inhibition of IL-6 level at 20 uM incubated for 24 hrs by ELISA method relative to control; format: functional
[12] = Toxicity in BALB/c mouse assessed as change in SOD level in serum at 10 mg/kg, po; format: organism-based; conditions: in vivo
[13] = Half life in BALB/c mouse at 10 mg/kg, po measured upto 24 hrs by LC/MS-MS analysis; format: ADME, organism-based; conditions: in vivo
RAW264.7 [14] = assay: Cytotoxicity against mouse RAW264.7 cells assessed as cell viability at 40 uM measured after 24 hrs by MTT assay; format: toxicity, cell-based; conditions: raw264.7, 24 h
[15] = Tmax in BALB/c mouse at 10 mg/kg, po measured upto 24 hrs by LC/MS-MS analysis; format: ADME, organism-based; conditions: in vivo
Mus musculus [16] = assay: Antiinflammatory activity in LPS-induced BALB/c sepsis mouse model assessed as decrease in serum SCr level at 2.5 to 10 mg/kg, iv administered for 2 hrs and measured after 12 hrs; format: functional, organism-based; conditions: dose 2.5-10 mg/kg, time 14.0 hrs
[17] = Toxicity in BALB/c mouse assessed as pathological damage in kidney at 10 mg/kg, po administered for 2 hrs by H and E staining based analysis; format: organism-based; conditions: in vivo
[18] = Toxicity in BALB/c mouse assessed as kidney lesions at 2.5 to 10 mg/kg, iv administered for 2 hrs and measured after 12 hrs by H and E staining based assay; format: organism-based; conditions: in vivo, 14 h, dose 2.5-10 mg/kg
[19] = Toxicity in BALB/c mouse assessed as liver lesions at 2.5 to 10 mg/kg, iv administered for 2 hrs and measured after 12 hrs by H and E staining based assay; format: organism-based; conditions: in vivo, 14 h, dose 2.5-10 mg/kg
Mus musculus [20] = assay: Antiinflammatory activity in LPS-induced BALB/c sepsis mouse model assessed as decrease in serum BUN level at 2.5 to 10 mg/kg, iv administered for 2 hrs and measured after 12 hrs; format: functional, organism-based; conditions: dose 2.5-10 mg/kg, time 14.0 hrs
[21] = Toxicity in BALB/c mouse assessed as increase in survival rate at 10 mg/kg, po administered for 3 days; format: organism-based; conditions: in vivo, 72 h, time 3 day
[22] = Toxicity in BALB/c mouse assessed as pathological damage in spleen at 10 mg/kg, po administered for 2 hrs by H and E staining based analysis; format: organism-based; conditions: in vivo
Mus musculus [23] = assay: Antiinflammatory activity in LPS-induced BALB/c sepsis mouse model assessed as decrease in serum ALT level at 2.5 to 10 mg/kg, iv administered for 2 hrs and measured after 12 hrs; format: functional, organism-based; conditions: dose 2.5-10 mg/kg, time 14.0 hrs
[24] = Toxicity in BALB/c mouse assessed as animal survival at 750 mg/kg, po administered for 2 hrs; format: organism-based; conditions: in vivo
RAW264.7 [25] = assay: Antiinflammatory activity in LPS-induced mouse RAW264.7 cells assessed as reduction in TAK1-TAB1 complex formation incubated for 2 hrs vy immunoprecipitation analysis; format: functional, cell-based
RAW264.7 [26] = assay: Antiinflammatory activity in LPS-induced mouse RAW264.7 cells assessed as reduction in TNF-alpha release incubated for 24 hrs by ELISA method; format: functional, cell-based; conditions: dose 2.5-10 µM
[27] = Toxicity in BALB/c mouse assessed as change in MDA level in serum at 10 mg/kg, po; format: organism-based; conditions: in vivo
[28] = Toxicity in BALB/c mouse assessed as pathological damage in liver at 10 mg/kg, po administered for 2 hrs by H and E staining based analysis; format: organism-based; conditions: in vivo
[29] = Toxicity in BALB/c mouse assessed as lung lesions at 2.5 to 10 mg/kg, iv administered for 2 hrs and measured after 12 hrs by H and E staining based assay; format: organism-based; conditions: in vivo, 14 h, dose 2.5-10 mg/kg
[30] = Toxicity in BALB/c mouse assessed as animal survival at 500 mg/kg, po administered for 2 hrs; format: organism-based; conditions: in vivo
[31] = Toxicity in BALB/c mouse assessed as pathological damage in heart at 10 mg/kg, po administered for 2 hrs by H and E staining based analysis; format: organism-based; conditions: in vivo
Mus musculus [32] = assay: Antiinflammatory activity in LPS-induced BALB/c sepsis mouse model assessed as decrease in serum SOD level at 2.5 to 10 mg/kg, iv administered for 2 hrs and measured after 12 hrs; format: functional, organism-based; conditions: dose 2.5-10 mg/kg, time 14.0 hrs
Mus musculus [33] = assay: Antiinflammatory activity in LPS-induced BALB/c sepsis mouse model assessed as decrease in serum MDA level at 2.5 to 10 mg/kg, iv administered for 2 hrs and measured after 12 hrs; format: functional, organism-based; conditions: dose 2.5-10 mg/kg, time 14.0 hrs
Mus musculus [34] = assay: Antiinflammatory activity in LPS-induced BALB/c sepsis mouse model assessed as reduction in IL-6 level in serum at 2.5 to 10 mg/kg, iv administered for 2 hrs and measured after 12 hrs by ELISA analysis; format: functional, organism-based; conditions: dose 2.5-10 mg/kg, time 14.0 hrs
RAW264.7 [35] = assay: Antiinflammatory activity in LPS-induced mouse RAW264.7 cells assessed as reduction in IL-6 release incubated for 24 hrs by ELISA method; format: functional, cell-based; conditions: dose 2.5-10 µM
[36] = Toxicity in BALB/c mouse assessed as histopathological lesions in lung at 10 mg/kg, po in presence of 4a-benzyl-12-ethyl-(6aS,6bR,9R,13aR)-9-(hydroxymethyl)-2,2,6a,6b,9,13a-hexamethyl-1,3,4,5,6,6a,6b,7,8,8a,9,13,13a,13b,14,15b-hexadecahydropiceno[2,3-d]isoxazole-4a,12(2H)-dicarboxylate by H and E staining based analysis; format: organism-based; conditions: in vivo
Mus musculus [37] = assay: Antiinflammatory activity in LPS-induced BALB/c sepsis mouse model assessed as reduction in TNF-alpha level in serum at 2.5 to 10 mg/kg, iv administered for 2 hrs and measured after 12 hrs by ELISA analysis; format: functional, organism-based; conditions: dose 2.5-10 mg/kg, time 14.0 hrs
[38] = Toxicity in BALB/c mouse assessed as histopathological lesions in kidney at 10 mg/kg, po in presence of 4a-benzyl-12-ethyl-(6aS,6bR,9R,13aR)-9-(hydroxymethyl)-2,2,6a,6b,9,13a-hexamethyl-1,3,4,5,6,6a,6b,7,8,8a,9,13,13a,13b,14,15b-hexadecahydropiceno[2,3-d]isoxazole-4a,12(2H)-dicarboxylate by H and E staining based analysis; format: organism-based; conditions: in vivo
[39] = Toxicity in BALB/c mouse assessed as histopathological lesions in liver at 10 mg/kg, po in presence of 4a-benzyl-12-ethyl-(6aS,6bR,9R,13aR)-9-(hydroxymethyl)-2,2,6a,6b,9,13a-hexamethyl-1,3,4,5,6,6a,6b,7,8,8a,9,13,13a,13b,14,15b-hexadecahydropiceno[2,3-d]isoxazole-4a,12(2H)-dicarboxylate by H and E staining based analysis; format: organism-based; conditions: in vivo
[40] = Toxicity in BALB/c mouse assessed as pathological damage in lung at 10 mg/kg, po administered for 2 hrs by H and E staining based analysis; format: organism-based; conditions: in vivo
Mus musculus [41] = assay: Antiinflammatory activity in LPS-induced BALB/c sepsis mouse model assessed as decrease in serum AST level at 2.5 to 10 mg/kg, iv administered for 2 hrs and measured after 12 hrs; format: functional, organism-based; conditions: dose 2.5-10 mg/kg, time 14.0 hrs
[42] = Toxicity in BALB/c mouse assessed as change in body weight at 10 mg/kg, po administered for 3 days; format: organism-based; conditions: in vivo, 72 h, time 3 day

CCOC(=O)c1noc2c1C[C@@]1(C)[C@@H](CC[C@]3(C)[C@@H]1CC=C1[C@@H]4CC(C)(C)CC[C@]4(C(=O)OCc4ccccc4)CC[C@]13C)[C@]2(C)CO
Activity [1]: Non-toxic | Activity [2]: Non-toxic | AUC(0-inf) [3]: 23400 ng·h/mL | Activity [4]: Non-toxic | AUC(0-t) at 24 h [5]: 22700 ng·h/mL | Activity [6]: Non-toxic | Activity [7]: Non-toxic | Activity [8]: Non-toxic | inhibition at 20 µM (RAW264.7 [9]): 52.4% | Cmax [10]: 3930 ng/mL | inhibition at 20 µM (RAW264.7 [11]): 32.5% | Activity [12]: Non-toxic | half-life [13]: 4.85 h | Activity (RAW264.7 [14]): Non-toxic | Tmax [15]: 4 h

CCOC(=O)c1noc2c1C[C@@]1(C)[C@@H](CC[C@]3(C)[C@@H]1CC=C1[C@@H]4CC(C)(C)CC[C@]4(C(=O)OCc4ccccc4)CC[C@]13C)[C@]2(C)COC(=O)CCC(=O)N1CCOCC1
Activity (Mus musculus [16]): Active | AUC(0-inf) [3]: 9970 ng·h/mL | Activity [17]: Non-toxic | Activity [18]: Non-toxic | Activity [19]: Non-toxic | Activity (Mus musculus [20]): Active | Activity [21]: Non-toxic | AUC(0-t) at 24 h [5]: 9620 ng·h/mL | Activity [22]: Non-toxic | Activity (Mus musculus [23]): Active | Activity [24]: Toxic | Activity (RAW264.7 [25]): Active | Activity (RAW264.7 [26]): Dose-dependent-effect | Activity [27]: Non-toxic | Activity [28]: Non-toxic | Activity [29]: Non-toxic | inhibition at 20 µM (RAW264.7 [9]): 80% | Activity [30]: Non-toxic | Activity [31]: Non-toxic | Activity (Mus musculus [32]): Active | Activity (Mus musculus [33]): Active | Activity (Mus musculus [34]): Active | Activity (RAW264.7 [35]): Dose-dependent-effect | Cmax [10]: 2760 ng/mL | inhibition at 20 µM (RAW264.7 [11]): 69.6% | half-life [13]: 5.42 h | Activity [36]: Non-toxic | Activity (Mus musculus [37]): Active | Activity [38]: Non-toxic | Activity [39]: Non-toxic | Activity [40]: Non-toxic | Activity (RAW264.7 [14]): Non-toxic | Activity (Mus musculus [41]): Active | Tmax [15]: 2.25 h | Activity [42]: Non-toxic

From ChEMBL document CHEMBL6121038, “Design and Synthesis of Hederagenin Derivatives for the Treatment of Sepsis by Targeting TAK1 and Regulating the TAK1-NF-κB/MAPK Signaling” (J Med Chem, 2025)
